Data taken from PMC4474554 (PLoS ONE, 2015).
Values joined by “and” are separate entries in the source; they are usually repeats but may differ in a detail not shown here. Equal values may be shown once. “Also recorded” adds a separate entry of the source. Read-outs that look alike come from different tables or passages of the source.

What was measured:
NCI-H1993 = assay: MTS assay, NCI-H1993
phospho-FAK = assay: Western blotting, FAK phosphorylation in NSCLC cell lines; assay type: cell-based
Experimental: (§1) Next, they were washed out with cold PBS and lysed in 1 × cell lysis buffer [20 mM Tris-HCl (pH 7.5), 150 mM NaCl, 1 mM Na2EDTA, 1 mM EGTA, 1% Triton, 2.5 mM sodium pyrophosphate, 1 mM beta-glycerophosphate, 1 mM Na3VO4, 1 μg/ml leupeptin] (Cell signaling Technology) supplemented with Complete, Mini (Roche, Basel, Switzerland) to extract protein. After the protein concentration was measured, equal amounts of total protein (30 μg) were separated by SDS-PAGE and transferred to PVDF membranes. The proteins on membranes were incubated overnight at 4°C with the primary antibodies. The following secondary antibodies were used: goat antirabbit or antimouse IgG-conjugated horseradish peroxidase (HRP) (Santa Cruz Biotechnology, Santa Cruz, CA). To detect specific signals, the membranes were incubated by ECL plus Western Blotting Detection Reagents (Amersham Biosciences UK Limited, Buckinghamshire, UK).

phospho-IGF-IR = assay: Western blotting, IGF-IR phosphorylation in NSCLC cell lines; assay type: cell-based; conditions: up to a concentration of 5 μM; PC-9, HCC827, NCI-H1975, RPC-9, NCI-H1299, NCI-H1819
Experimental: as §1

FAK = system: FAK; set-up: method as in earlier work; conditions: updated data; cited from earlier work
FGFR-1 = conditions: updated data; cited from earlier work
FGFR-3 (K650E) = system: FGFR-3 (K650E); set-up: method as in earlier work; conditions: updated data; cited from earlier work
CDK1/cyclin B = system: CDK1/cyclin B; set-up: method as in earlier work; conditions: updated data; cited from earlier work
NCI-H1975 = assay: MTS assay, NCI-H1975

Compound: CNC(=O)c1ccccc1Nc1nc(Nc2ccc(N3CCOCC3)cc2OC)ncc1Cl [TAE226]
- IC50 (NCI-H1993; read-out: IC50 (μM) (mean ± SD), NCI-H1993, MET amplification, MTS, TAE226 48 hours, gefitinib 72 hours): 0.89 ± 0.001 µM
- IC50 (NCI-H1993; read-out: each IC50, NCI-H1993, independent MTS assays): 0.89 µM
- IC50 (NCI-H1993; read-out: mean IC50, NCI-H1993, mean of independent MTS assays): 0.89 µM
- phosphorylation of FAK (Thy397) (phospho-FAK; up to a concentration of 5 μM, PC-9, HCC827, NCI-H1975, RPC-9, NCI-H1299, NCI-H1819): not significantly inhibited; also recorded: not suppressed
- phosphorylation of IGF-IR (Tyr1131) (phospho-IGF-IR): not significantly inhibited; also recorded: not suppressed
- IC50 (FAK): 5.5 nM
- IC50 (CDK1/cyclin B): 540 nM
- IC50 (NCI-H1975; read-out: IC50 (μM) (mean ± SD), NCI-H1975, EGFR Exon 21 (L858R) + T790M, MTS, TAE226 48 hours, gefitinib 72 hours): 0.17 ± 0.02 µM
